The subject of one data set is children with autism. The data set is described as follows: 12-week placebo-controlled study of NAC: Clinical Global Impression (CGI). In kind it is in vivo, human. The text has this:
The Clinical Global Impression (CGI) rating scales are commonly used measures of symptom severity, treatment response and the efficacy of treatments in treatment studies of patients with mental disorders (Guy, W., 1976, ECDEU Assessment Manual for Psychopharmacology, Rockville, Md., U.S. Department of Health, Education, and Welfare). The Clinical Global Impression-Severity scale (CGI-S) is a 7-point scale that requires the clinician to rate the severity of the patient's illness at the time of assessment, relative to the clinician's past experience with patients who have the same diagnosis. Considering total clinical experience, a patient is assessed on severity of mental illness at the time of rating 1=normal, not at all ill; 2=borderline mentally ill; 3=mildly ill; 4=moderately ill; 5=markedly ill; 6=severely ill; or 7=extremely ill.
A 12-week, double-blind randomized, placebo-controlled study of NAC in children with autism was conducted in the Autism & Developmental Disabilities Clinic in the Division of Child & Adolescent Psychiatry at Stanford University Medical Center. The recruitment period started in March 2009 and ended in September 2010. Subjects with and without mental retardation were included. After obtaining informed consent, subjects were screened and inclusion and exclusion criteria were assessed. No changes in eligibility criteria were applied throughout the study. This investigation was approved by the institutional review board at Stanford University School of Medicine. An investigational new drug application (IND#100905) was filed with the Food and Drug Administration, and the study was registered in National Institutes of Health at ClinicalTrials.gov (identifier number NCT00627705).
After the screening phase, baseline measures were obtained from subjects continuing to meet inclusion and exclusion criteria. Subjects were then randomized to either placebo or active based on age and gender. As NAC is a nutritional supplement, the quality control is predictably variable and therefore purity is not as stringent as prescription medications. Therefore, in the present study, the stability of the compound was ascertained and the integrity of the active agent was protected by packaging each NAC doses in individual pockets. The active compound and matching placebo were provided by BioAdvantex Pharma, Inc. (Mississauga, Ontario, Canada). […] Subjects randomized to the active drug were initiated at the dose of 900 mg every day for the first 4 weeks, then 900 mg twice daily for 4 weeks and 900 mg three times daily for 4 weeks. (This dose selection was based on previously published studies for other psychiatric conditions (Grant, J. et al., Arch Gen Psychiatry, 66:468-475 (2009); Berk, M. et al., Biol Psychiatry, 64:361-368 (2008); Berk, M. et al., Bio Psychiatry, 64:468-475 (2008)) and the previous experience of our group in studies of children with cystic fibrosis). Alternatively, subjects were initiated at the dose of 900 mg per day, 1,800 mg per day, or 2,700 mg per day of NAC. Alternatively, the subjects were initiated at the dose ranging from 900 mg per day to 2,700 mg per day of NAC.
If a subject could not tolerate a specific dose, s/he would be maintained at the highest tolerated dose. Subjects were evaluated at baseline, week 4, week 8 and week 12. The Aberrant Behavioral Checklist (ABC) (Aman, M. et al., Am J Ment Defic. 89:492-502 (1985)), the Clinical Global Impressions (CGI) (Guy, W., ECDEU Assessment Manual for Psychopharmacology, Rockville, Md., U.S. Department of Health, Education, and Welfare (1976)), and the Dosage Record and Treatment Emergent Symptom Scale (DOTES) (Guy, W., 1976, ECDEU Assessment Manual for Psychopharmacology, Rockville, Md., U.S. Department of Health, Education, and Welfare) were obtained in each visit. […]

The conditions of data set [1]: Noszal et al. 2000; cited from earlier work.
Setting [2] is: standardized mean difference NAC vs placebo at Week 12.

Turning to `CC(=O)N[C@@H](CS)C(=O)O` [NAC, N-acetylcysteine], the “CGI severity, Mean (SD)” value is 5.1 (0.7) with children with autism (Baseline (before treatment), NAC group n = 15) and 4.5 (0.8) in the data set on children with autism (Week 12, NAC n = 14, 7-point scale). For the same compound, the “CGI improvement, Mean (SD)” value with children with autism (Week 12, NAC n = 14) is recorded as 2.9 (1.1). Besides, the “CGI-S global severity, pattern NAC vs placebo” value with children with autism (all randomized participants, p=0.170) is given as “no significant differences”. In addition, in the data set on children with autism (all randomized participants, p=0.449), the “CGI-I improvement, pattern NAC vs placebo” value is “no significant differences”. Also, the “CGI improvement, Cohen's d” value in the data set with children with autism (setting [2]) is recorded as “.30”. In addition, in the data set with children with autism (setting [2]), the “CGI severity, Cohen's d” value was “.47”. For the same compound, the “half-cell potential of the NAC thiol/disulfide pair” value in data set [1] was “about +63 mV”.

Source of the values: US20130296430A1, “COMPOSITIONS AND METHODS FOR TREATING AUTISM AND AUTISM SPECTRUM DISORDER” (priority 2012, published 2013).
